From ChEMBL document CHEMBL1201862, “PubChem BioAssay data set” (2004)
Each block holds one compound with its values, some of them ahead of it. Activity calls are given as the source filed them.

Experiments:
[1] = target: T1, Delta-type opioid receptor (Homo sapiens, UniProt P41143); experiment: HTS Image-Based Screen for Antagonists of the DOR Receptor. [Related pubchem assays (depositor defined):AID1777, AID1785, AID1786, AID2133]; format: functional
Mu-type opioid receptor [2] = target: T2, Mu-type opioid receptor (Homo sapiens, UniProt P35372); experiment: mu opioid receptor blockers – image-based, SAR follow-up (AID 2420); format: functional;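 further: compounds added before stimulation of receptor with agonist DAMGO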
T2 sequence (P35372 whole entry): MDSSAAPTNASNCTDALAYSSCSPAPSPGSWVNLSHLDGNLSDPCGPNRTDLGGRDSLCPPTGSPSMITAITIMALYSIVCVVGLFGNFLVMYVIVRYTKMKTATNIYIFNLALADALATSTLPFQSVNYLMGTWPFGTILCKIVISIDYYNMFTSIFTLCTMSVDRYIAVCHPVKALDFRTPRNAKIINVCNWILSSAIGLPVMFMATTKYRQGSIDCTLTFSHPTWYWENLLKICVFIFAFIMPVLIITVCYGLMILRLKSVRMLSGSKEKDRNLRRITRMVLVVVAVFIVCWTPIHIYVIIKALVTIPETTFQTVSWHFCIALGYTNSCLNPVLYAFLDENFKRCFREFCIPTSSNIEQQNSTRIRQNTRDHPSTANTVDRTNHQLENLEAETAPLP

[3] = target: T1, Delta-type opioid receptor; experiment: delta opioid receptor blockers – image-based, SAR follow-up (AID 2357); format: functional
[4] = target: T1, Delta-type opioid receptor; experiment: DOR agonists, SAR follow-up, image-based (AID 2370); format: functional
Mu-type opioid receptor [5] = target: T2, Mu-type opioid receptor; experiment: SAR Analysis of Antagonists of the MOR Receptor using an Image-Based Assay - Set 3. [Related pubchem assays (depositor defined):AID1777, AID1785, AID1786, AID1966, AID2133, AID2136, AID2284, AID2285, AID2420]; format: functional
[6] = target: T1, Delta-type opioid receptor; experiment: SAR Analysis of Antagonists of the DOR Receptor using an Image-Based Assay - Set 3. [Related pubchem assays (depositor defined):AID1777, AID1785]; format: functional
Mu-type opioid receptor [7] = target: T2, Mu-type opioid receptor; experiment: HTS Image-Based Screen for Agonists of the MOR Receptor. [Related pubchem assays (depositor defined):AID1777, AID1785, AID1786, AID2133]; format: functional
[8] = target: T1, Delta-type opioid receptor; experiment: HTS Image-Based Screen for Agonists of the DOR Receptor. [Related pubchem assays (depositor defined):AID1777, AID1786, AID2133]; format: functional
Mu-type opioid receptor [9] = target: T2, Mu-type opioid receptor; experiment: mu opioid receptor activators, image-based, SAR follow-up (AID 2352); format: functional
Beta-galactosidase = Beta-galactosidase (Escherichia coli, UniProt Q8VNN2); format: functional
Sequence of Beta-galactosidase (Q8VNN2 whole entry): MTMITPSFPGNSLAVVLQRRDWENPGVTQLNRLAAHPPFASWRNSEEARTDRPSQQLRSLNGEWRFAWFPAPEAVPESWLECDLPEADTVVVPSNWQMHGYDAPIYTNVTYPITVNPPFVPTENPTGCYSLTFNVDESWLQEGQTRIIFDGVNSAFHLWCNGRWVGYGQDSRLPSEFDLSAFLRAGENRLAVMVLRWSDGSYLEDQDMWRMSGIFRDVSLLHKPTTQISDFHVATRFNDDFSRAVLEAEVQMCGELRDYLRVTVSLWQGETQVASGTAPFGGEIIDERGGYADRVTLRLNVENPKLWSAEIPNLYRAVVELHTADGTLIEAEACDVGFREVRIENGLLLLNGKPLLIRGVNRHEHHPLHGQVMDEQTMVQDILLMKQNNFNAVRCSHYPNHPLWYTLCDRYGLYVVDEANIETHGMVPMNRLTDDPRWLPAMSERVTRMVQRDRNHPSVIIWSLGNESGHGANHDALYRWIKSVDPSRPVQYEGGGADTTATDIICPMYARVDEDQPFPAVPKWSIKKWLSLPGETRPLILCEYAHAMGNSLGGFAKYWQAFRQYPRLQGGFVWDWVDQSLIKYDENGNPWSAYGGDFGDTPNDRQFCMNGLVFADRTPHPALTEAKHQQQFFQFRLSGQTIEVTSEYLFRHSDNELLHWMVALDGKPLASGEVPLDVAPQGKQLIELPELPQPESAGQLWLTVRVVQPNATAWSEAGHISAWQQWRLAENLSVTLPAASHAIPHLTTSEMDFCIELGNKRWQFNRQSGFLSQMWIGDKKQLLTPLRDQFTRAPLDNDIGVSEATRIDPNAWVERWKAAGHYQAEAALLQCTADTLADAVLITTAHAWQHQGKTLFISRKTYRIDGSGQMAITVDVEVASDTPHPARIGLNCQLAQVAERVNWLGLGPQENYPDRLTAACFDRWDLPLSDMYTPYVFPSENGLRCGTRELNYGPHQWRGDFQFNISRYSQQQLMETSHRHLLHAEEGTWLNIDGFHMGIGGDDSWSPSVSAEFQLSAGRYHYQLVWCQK

[10] = target: DNA damage-inducible transcript 3 protein (Mus musculus, UniProt P35639); format: functional, Cricetulus griseus
Sequence of DNA damage-inducible transcript 3 protein (P35639 whole entry): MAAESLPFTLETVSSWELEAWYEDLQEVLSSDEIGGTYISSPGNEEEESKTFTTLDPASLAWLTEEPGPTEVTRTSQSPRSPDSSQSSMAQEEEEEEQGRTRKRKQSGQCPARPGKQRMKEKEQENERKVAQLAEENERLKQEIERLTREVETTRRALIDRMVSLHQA

CAAX prenyl protease 2 = target: T3, CAAX prenyl protease 2 (Saccharomyces cerevisiae S288c, UniProt Q03530); format: biochemical
T3 sequence (Q03530 whole entry): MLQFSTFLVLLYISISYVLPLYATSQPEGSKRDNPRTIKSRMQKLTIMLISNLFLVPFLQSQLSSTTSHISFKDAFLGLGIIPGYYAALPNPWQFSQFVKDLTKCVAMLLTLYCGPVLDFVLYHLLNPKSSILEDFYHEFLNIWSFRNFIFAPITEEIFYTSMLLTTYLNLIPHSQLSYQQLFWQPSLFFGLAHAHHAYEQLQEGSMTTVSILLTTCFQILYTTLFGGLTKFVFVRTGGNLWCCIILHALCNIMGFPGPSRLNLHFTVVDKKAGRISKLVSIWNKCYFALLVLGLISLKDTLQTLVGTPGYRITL

[11] = toxicity toward cultured mammalian cells – cell-based, plate reader, cherry-pick samples, cytotoxicity control, dose response (AID 504397); format: functional
[12] = target: Nucleotide-binding oligomerization domain-containing protein 2 (Homo sapiens, UniProt Q9HC29); experiment: inhibition of MDP-driven NOD2 NF-kB reporter – cell-based, set 3, SAR follow-up (AID 2799); format: functional
Sequence of Nucleotide-binding oligomerization domain-containing protein 2 (Q9HC29 whole entry, the tested form may be a part): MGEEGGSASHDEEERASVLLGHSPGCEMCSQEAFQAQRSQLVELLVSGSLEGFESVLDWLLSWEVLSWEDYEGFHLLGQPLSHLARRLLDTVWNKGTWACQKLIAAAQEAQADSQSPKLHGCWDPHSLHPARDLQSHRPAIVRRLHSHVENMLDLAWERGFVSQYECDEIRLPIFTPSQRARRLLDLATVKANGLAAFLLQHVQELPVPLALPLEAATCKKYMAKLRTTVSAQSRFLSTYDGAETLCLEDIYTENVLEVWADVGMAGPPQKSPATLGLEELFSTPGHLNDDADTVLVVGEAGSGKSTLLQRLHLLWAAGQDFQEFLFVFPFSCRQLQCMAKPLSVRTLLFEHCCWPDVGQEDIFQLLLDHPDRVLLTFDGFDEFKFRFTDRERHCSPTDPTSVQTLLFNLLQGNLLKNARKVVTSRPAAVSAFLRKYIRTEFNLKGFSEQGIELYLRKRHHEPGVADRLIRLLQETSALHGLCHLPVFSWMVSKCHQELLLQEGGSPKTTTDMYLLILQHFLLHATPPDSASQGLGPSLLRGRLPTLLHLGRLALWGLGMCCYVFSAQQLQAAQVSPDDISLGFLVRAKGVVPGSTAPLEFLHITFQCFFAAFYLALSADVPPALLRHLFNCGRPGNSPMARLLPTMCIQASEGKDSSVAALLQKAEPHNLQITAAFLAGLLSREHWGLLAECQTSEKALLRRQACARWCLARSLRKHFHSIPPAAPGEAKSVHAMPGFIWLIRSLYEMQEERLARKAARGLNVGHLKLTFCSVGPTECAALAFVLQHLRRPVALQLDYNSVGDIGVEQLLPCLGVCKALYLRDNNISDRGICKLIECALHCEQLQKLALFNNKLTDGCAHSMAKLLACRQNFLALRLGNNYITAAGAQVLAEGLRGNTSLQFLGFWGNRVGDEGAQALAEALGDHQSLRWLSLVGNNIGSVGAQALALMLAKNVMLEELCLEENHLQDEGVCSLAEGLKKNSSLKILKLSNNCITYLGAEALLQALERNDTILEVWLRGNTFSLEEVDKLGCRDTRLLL

HEK293 = experiment: SAR analysis of compounds that are cytotoxic to HEK293 - Set 3. [Related pubchem assays (depositor defined):AID1575, AID1578, AID1848, AID1849, AID2001, AID2333, AID2334, AID2335, AID2337, AID2469]; format: functional, cell-based; conditions: Homo sapiens
[13] = target: Nucleotide-binding oligomerization domain-containing protein 1 (Homo sapiens, UniProt Q9Y239); experiment: SAR analysis of compounds that inhibit NOD1 - Set 3. [Related pubchem assays (depositor defined):AID1566, AID1575, AID1578, AID1849, AID1852, AID2333, AID2335, AID2466]; format: functional
Sequence of Nucleotide-binding oligomerization domain-containing protein 1 (Q9Y239 whole entry, the tested form may be a part): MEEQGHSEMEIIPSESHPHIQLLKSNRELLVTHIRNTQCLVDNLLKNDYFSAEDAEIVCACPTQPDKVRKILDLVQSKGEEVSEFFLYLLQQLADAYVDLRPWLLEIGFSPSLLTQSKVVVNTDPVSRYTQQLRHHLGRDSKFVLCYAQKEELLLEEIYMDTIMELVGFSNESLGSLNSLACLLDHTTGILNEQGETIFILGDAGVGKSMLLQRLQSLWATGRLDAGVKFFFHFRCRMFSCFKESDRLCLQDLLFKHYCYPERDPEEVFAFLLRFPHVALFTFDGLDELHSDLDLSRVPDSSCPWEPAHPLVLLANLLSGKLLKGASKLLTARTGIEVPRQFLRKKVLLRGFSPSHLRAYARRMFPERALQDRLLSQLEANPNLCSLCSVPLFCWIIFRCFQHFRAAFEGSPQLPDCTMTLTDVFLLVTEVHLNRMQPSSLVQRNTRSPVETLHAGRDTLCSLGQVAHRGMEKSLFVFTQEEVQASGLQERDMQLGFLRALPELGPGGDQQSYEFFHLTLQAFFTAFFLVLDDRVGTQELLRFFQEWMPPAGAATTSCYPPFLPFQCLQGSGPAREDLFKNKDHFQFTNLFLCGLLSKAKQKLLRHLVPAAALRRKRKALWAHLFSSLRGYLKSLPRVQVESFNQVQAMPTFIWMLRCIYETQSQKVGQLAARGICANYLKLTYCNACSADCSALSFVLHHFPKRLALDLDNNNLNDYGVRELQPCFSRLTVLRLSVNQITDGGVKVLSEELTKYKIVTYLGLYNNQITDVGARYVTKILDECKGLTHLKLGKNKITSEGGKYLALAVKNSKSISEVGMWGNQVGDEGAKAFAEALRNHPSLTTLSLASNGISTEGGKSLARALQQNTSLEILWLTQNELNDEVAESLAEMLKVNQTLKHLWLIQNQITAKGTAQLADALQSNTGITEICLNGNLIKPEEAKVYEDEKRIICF

Tumor necrosis factor = Tumor necrosis factor (Homo sapiens, UniProt P01375); experiment: analog potency on TNFa NF-kB signaling – cell-based, set 3, SAR follow-up (AID 2801); format: functional
Sequence of Tumor necrosis factor (P01375 whole entry): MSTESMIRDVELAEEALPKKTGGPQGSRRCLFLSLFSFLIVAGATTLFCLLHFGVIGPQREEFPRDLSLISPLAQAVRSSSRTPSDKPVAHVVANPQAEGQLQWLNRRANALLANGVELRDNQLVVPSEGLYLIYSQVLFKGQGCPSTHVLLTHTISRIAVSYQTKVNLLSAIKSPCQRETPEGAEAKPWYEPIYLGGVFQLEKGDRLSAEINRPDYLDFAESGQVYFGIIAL

[14] = (§1) Counterscreen for antagonists of the orexin 1 receptor (OX1R; HCRTR1): Fluorescence-based cell-based high throughput dose response assay to identify antagonists of the parental CHO cell line. [Related pubchem assays (depositor defined):AID434989, AID435008, AID463079, AID485270, AID492963, AID492964, AID492965, AID493232, AID504699, AID504701]; format: functional
[15] = target: T4, Orexin/Hypocretin receptor type 1 (Homo sapiens, UniProt O43613); experiment: Homogeneous Time Resolved Fluorescence (HTRF)-based cell-based high throughput dose response assay for antagonists of the orexin 1 receptor (OX1R; HCRTR1). [Related pubchem assays (depositor defined):AID434989, AID435008, AID463079, AID485270, AID492963, AID492964, AID492965, AID493232, AID504717, AID504718]; format: functional
T4 sequence (O43613 whole entry): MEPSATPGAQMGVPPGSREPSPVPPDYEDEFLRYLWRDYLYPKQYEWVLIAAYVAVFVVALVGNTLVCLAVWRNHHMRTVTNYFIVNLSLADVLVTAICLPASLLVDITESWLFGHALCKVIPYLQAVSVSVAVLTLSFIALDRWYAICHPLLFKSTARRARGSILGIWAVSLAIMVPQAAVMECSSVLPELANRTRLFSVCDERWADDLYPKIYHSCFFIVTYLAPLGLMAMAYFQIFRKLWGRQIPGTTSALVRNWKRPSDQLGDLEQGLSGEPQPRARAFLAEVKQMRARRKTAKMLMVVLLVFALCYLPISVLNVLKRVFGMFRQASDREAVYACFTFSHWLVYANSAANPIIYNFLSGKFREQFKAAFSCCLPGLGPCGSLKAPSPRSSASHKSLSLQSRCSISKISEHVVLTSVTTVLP

Orexin receptor type 2 [16] = target: T5, Orexin receptor type 2 (Homo sapiens, UniProt O43614); experiment: Counterscreen assay for antagonists of the orexin 1 receptor (OX1R; HCRTR1): Homogeneous Time Resolved Fluorescence (HTRF)-based cell-based dose response assay for antagonists of the orexin 2 receptor (OX2R; HCRTR2), run by assay provider.; format: functional
T5 sequence (O43614 whole entry): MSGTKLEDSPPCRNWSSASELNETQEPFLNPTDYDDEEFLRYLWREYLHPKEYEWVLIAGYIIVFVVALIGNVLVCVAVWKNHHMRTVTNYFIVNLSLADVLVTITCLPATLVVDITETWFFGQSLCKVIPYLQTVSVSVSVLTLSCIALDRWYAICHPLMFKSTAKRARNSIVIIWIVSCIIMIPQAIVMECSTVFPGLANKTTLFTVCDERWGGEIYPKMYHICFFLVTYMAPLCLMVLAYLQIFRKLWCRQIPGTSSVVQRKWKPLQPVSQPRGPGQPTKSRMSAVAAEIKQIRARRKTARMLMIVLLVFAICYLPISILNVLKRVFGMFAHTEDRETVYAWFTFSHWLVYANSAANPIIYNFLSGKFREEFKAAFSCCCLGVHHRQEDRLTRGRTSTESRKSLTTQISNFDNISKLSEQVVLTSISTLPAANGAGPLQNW

[17] = target: T4, Orexin/Hypocretin receptor type 1; experiment: Fluorescence-based cell-based high throughput dose response assay for antagonists of the orexin 1 receptor (OX1R; HCRTR1). [Related pubchem assays (depositor defined):AID434989, AID435008, AID463079, AID485270, AID492963, AID492964, AID492965, AID493232, AID504717, AID504718]; format: functional
Orexin receptor type 2 [18] = target: T5, Orexin receptor type 2; experiment: Counterscreen assay for antagonists of the orexin 1 receptor (OX1R; HCRTR1): Fluorescence-based cell-based dose response assay for antagonists of the orexin 2 receptor (OX2R; HCRTR2), run by assay provider.; format: functional
CHO-K1 = experiment: as §1, with “Homogeneous time resolved fluorescence (HTRF)-based” for “Fluorescence-based”, “cell-based” for “cell-based high throughput”, “CHO-K1” for “CHO”; format: functional; conditions: Cricetulus griseus;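 further: potency for inhibition of ATP-stimulated IP1 production as antagonists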

T1 sequence (P41143 whole entry): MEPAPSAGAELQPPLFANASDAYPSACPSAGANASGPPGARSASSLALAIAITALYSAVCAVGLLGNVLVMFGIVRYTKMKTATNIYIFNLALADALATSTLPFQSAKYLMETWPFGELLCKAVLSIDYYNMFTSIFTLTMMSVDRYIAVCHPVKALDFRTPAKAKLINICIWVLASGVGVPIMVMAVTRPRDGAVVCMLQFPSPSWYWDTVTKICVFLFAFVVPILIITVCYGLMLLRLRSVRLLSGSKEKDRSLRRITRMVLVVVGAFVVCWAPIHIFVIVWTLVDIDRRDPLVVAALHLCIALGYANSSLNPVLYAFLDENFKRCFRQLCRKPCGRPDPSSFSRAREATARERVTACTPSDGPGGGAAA

IC50 [1]: > 32 µM (inactive)
IC50 (Mu-type opioid receptor [2]): > 32 µM (inactive)
IC50 [3]: > 32 µM (inactive)
EC50 [4]: > 32 µM (inactive)
IC50 (Mu-type opioid receptor [5]): 14 µM (inactive)
IC50 [6]: > 32 µM (inactive)
EC50 (Mu-type opioid receptor [7]): > 32 µM (inactive)
EC50 [8]: > 32 µM (inactive)
EC50 (Mu-type opioid receptor [9]): > 32 µM (inactive)
EC50 (Beta-galactosidase): > 31.5 µM (inactive)
Structure (SMILES): Cc1ccc(S(=O)(=O)NCc2ccc(C(=O)NCCN(Cc3ccccc3)C(C)C)cc2)cc1

Structure (SMILES): COC(=O)Oc1ccc(/C=N/NC(=O)CSCc2ccccc2Br)cc1OC
Absolute IC50 (CHOP) [10]: 10 µM

Structure (SMILES): O=C(c1cn(-c2ccccc2)nc1-c1cccs1)N1CCN(c2ccccn2)CC1
AC50 (CAAX prenyl protease 2): 3.87 µM (active)
AC50 [11]: > 350 µM (inactive)

Structure (SMILES): Cc1ccccc1S(=O)(=O)n1c(N)nc2ccccc21
IC50 [12]: > 20 µM (inactive)
IC50 (HEK293): > 20 µM (inactive)
IC50 [13]: > 20 µM (inactive)
IC50 (Tumor necrosis factor): > 20 µM (inactive)

Structure (SMILES): CSc1cccc(N2CC(C(=O)NCCN3C(=O)S/C(=C\c4cccnc4)C3=O)CC2=O)c1 (stereo not drawn)
IC50 [14]: > 49.8 µM (inactive)
IC50 [15]: 0.354 µM (active)
IC50 (Orexin receptor type 2 [16]): > 50 µM (inactive)
IC50 [17]: 3.1 µM (active)
IC50 (Orexin receptor type 2 [18]): 20.6 µM (inactive)
IC50 (CHO-K1): 10.5 µM (inactive)
